# What was measured:
# Daoy [1] = assay: Antiproliferative activity against human Daoy cells assessed as reduction in cell viability incubated for 48 hrs by MTT assay; format: functional, cell-based
# D283 Med [2] = assay: Antiproliferative activity against human D283 Med cells assessed as reduction in cell viability incubated for 48 hrs by MTT assay; format: functional, cell-based
# [3] = Antitumor activity against human Med-211 FH cells xenografted in athymic nude mouse assessed as tumor regression at 75 mg/kg, po QD for 28 days; format: functional; details: Med-211FH cell, 672 h, time 28 day, read-out: TGI
# [4] = Antitumor activity against human Med-1712FH cells xenografted in athymic nude mouse assessed as tumor regression at 75 mg/kg, po QD for 28 days; format: functional; details: Med-1712FH cell, 672 h, time 28 day, read-out: TGI
# [5] = Inhibition of hedge hog pathway in mouse Sufu-KO-LIGHT cells expressing firefly luciferase reporter gene assessed as inhibition of Gli transcription incubated for 16 hrs by Bright-Glo luciferase assay; format: cell-based
# Daoy [6] = assay: Antiproliferative activity against human Daoy cells assessed as inhibition of cell growth incubated for 24 to 96 hrs by MTT assay; format: functional; details: time 24-96 hrs
# ONS-76 [7] = assay: Antiproliferative activity against human ONS-76 cells assessed as inhibition of cell growth incubated for 24 to 96 hrs by MTT assay; format: functional; details: time 24-96 hrs
# D283 Med [8] = assay: Antiproliferative activity against human D283 Med cells assessed as inhibition of cell proliferation incubated for 48 hrs by MTS assay; format: functional, cell-based
# [9] = Anticancer activity against mouse Ptch+/- MB21 cells assessed as reduction in cell viability incubated for 72 hrs by CellTiter-Glo luminescent assay; format: functional, cell-based
# [10] = Anticancer activity against mouse Ptch+/- MB55 cells assessed as reduction in cell viability incubated for 72 hrs by CellTiter-Glo luminescent assay; format: functional, cell-based
# [11] = Anticancer activity against mouse Ptch+/- Trp53-/- MB53 cells assessed as reduction in cell viability incubated for 72 hrs by CellTiter-Glo luminescent assay; format: functional, cell-based
# [12] = Inhibition of hedgehog signalling in mouse Shh Light II cells transfected with Gli luciferase reporter gene assessed as Gli luciferase activity assessed as luciferase activity by luciferase assay; format: cell-based
# [13] = Antiproliferative activity against neonatally irradiated Ptch1-/+ mouse medulloblastoma cells assessed as inhibition of cell proliferation; format: functional, cell-based; details: light or radiation study
# [14] = Ratio of AUC in brain to plasma of C57BL/6 mouse at 2 mg/kg, po and measured after 24 hrs by LC/MS-MS analysis; format: ADME, organism-based; details: read-out: Ratio AUC
# Daoy [15] = assay: Antiproliferative activity against human Daoy cells assessed as inhibition of cell proliferation incubated for 72 hrs by MTS assay; format: functional, cell-based
# [16] = Antiproliferative activity against human UW228 cells assessed as inhibition of cell proliferation incubated for 72 hrs by MTS assay; format: functional, cell-based; details: UW228, 72 h
# ONS-76 [17] = assay: Antitumor activity against human ONS-76 cells xenografted in athymic nude mouse assessed as inhibition of tumor growth at 100 mg/kg, po QD for 9 days; format: functional; details: ONS-76, 216 h, time 9 day, read-out: TGI
# [18] = Antitumor activity against human HD-MB03 cells assessed as inhibition of cell growth incubated for 72 hrs by CellTiter-Glo luminescent assay; format: functional
# Daoy [19] = assay: Antitumor activity against human Daoy cells assessed as inhibition of cell growth incubated for 72 hrs by CellTiter-Glo luminescent assay; format: functional
# ONS-76 [20] = assay: Antitumor activity against human ONS-76 cells assessed as inhibition of cell growth incubated for 72 hrs by CellTiter-Glo luminescent assay; format: functional
# [21] = Antitumor activity against human UW228 cells assessed as inhibition of cell growth incubated for 72 hrs by CellTiter-Glo luminescent assay; format: functional
# [22] = Cytotoxicity against human D425 Med cells expressing Glt1-tTA:TRE-MYCN/Luc (GTML) assessed as reduction in cell viability incubated for 72 hrs by Resazurin assay; format: functional, cell-based
# [23] = Inhibition of hedgehog signalling in mouse Shh Light II cells co-transfected with Gli firefly and Renilla-luciferase assessed as reduction in SAG-induced Gli luciferase activity incubated for 24 hrs by dual luciferase reporter assay; format: cell-based
# [24] = Antiproliferative activity against human Med1 cells assessed as reduction in cell viability; format: functional, cell-based
# [25] = Antiproliferative activity against human Medulloblastoma cells expressing wild type SMO assessed as reduction in cell viability; format: functional, cell-based
smiles,measurement,setting,value
Cn1cc(CNCC2CCN(c3ncc(C(=O)NO)cn3)CC2)c2ccccc21 [QUISINOSTAT],IC50,Daoy [1],< 100 nM
same,IC50,D283 Med [2],< 200 nM
CC(=O)c1c(C)c2cnc(Nc3ccc(N4CCNCC4)cn3)nc2n(C2CCCC2)c1=O [PALBOCICLIB],inhibition in vivo at 75 mg/kg,[3],63%
same,inhibition in vivo at 75 mg/kg,[4],63%
CCOc1ccc(-[n+]2cc(-c3ccc(Br)cc3)n3c2CCc2ccccc2-3)cc1,IC50,[5],1420 nM
CC1=C(/C=C/C(C)=C/C=C/C(C)=C/C(=O)Nc2ccc(O)cc2)C(C)(C)CCC1 [FENRETINIDE],GI50,Daoy [6],5000 nM
same,GI50,ONS-76 [7],2000 nM
Fc1ccc(CNc2ncnc3c2cnn3CC(Cl)c2ccc(Cl)cc2)cc1 (centres undefined),IC50,D283 Med [8],4890 nM
O=C(O)c1ccc2c(c1)nc(Nc1cccc(Cl)c1)c1ccncc12 [SILMITASERTIB],IC50,[9],2500 nM
same,IC50,[10],2500 nM
same,IC50,[11],2500 nM
Cn1c(-c2ccccc2C(F)(F)F)nnc1C12CCC(c3noc(C4CC(F)(F)C4)n3)(CC1)CC2,IC50,[12],1500 nM
same,IC50,[13],300 nM
same,Kp at 24 h,[14],0.6
COc1ccc(Cn2c3ncnc4c(ncn4Cc4ccc(OC)cc4)c-3nc2=O)cc1,IC50,Daoy [15],2500 nM
same,IC50,[16],3500 nM
COc1cc2c(Oc3ccc(NC(=O)C4(C(=O)Nc5ccc(F)cc5)CC4)cc3F)ccnc2cc1OCCCN1CCOCC1 [FORETINIB],inhibition in vivo at 100 mg/kg,ONS-76 [17],50%
Cc1sc2c(c1C)C(c1ccc(Cl)cc1)=N[C@@H](CC(=O)Nc1ccc(O)cc1)c1nnc(C)n1-2 [BIRABRESIB],GI50,[18],160 nM
same,GI50,Daoy [19],160 nM
same,GI50,ONS-76 [20],160 nM
same,GI50,[21],160 nM
CNC(=O)c1nn(C)c2c1C(C)(C)Cc1cnc(Nc3ccc(N4CCN(C)CC4)cc3)nc1-2 [MILCICLIB],IC50,[22],940 nM
C=CCn1c(=O)c2cnc(Nc3ccc(N4CCN(C)CC4)cc3)nc2n1-c1cccc(C(C)(C)O)n1 [ADAVOSERTIB],IC50,Daoy [15],150 nM
same,IC50,[16],232 nM
COc1cc2c(cc1-c1c(C)noc1C)ncc1[nH]c(=O)n([C@H](C)c3ccccn3)c12,IC50,[23],30 nM
O=C(/C=C/c1ccc(CN(CCO)CCc2c[nH]c3ccccc23)cc1)NO [DACINOSTAT],IC50,Daoy [1],< 100 nM
same,IC50,D283 Med [2],< 200 nM
Cc1sc2c(c1C)C(c1ccc(Cl)cc1)=N[C@@H](CC(=O)OC(C)(C)C)c1nnc(C)n1-2,IC50,[24],50 nM
same,IC50,[25],50 nM
